Values quoted from earlier work as cited in patent US20130149346A1, “DABIGATRAN ETEXILATE-CONTAINING PHARMACEUTICAL COMPOSITION” (ratiopharm GmbH Graf-Arco-Strasse 3, priority 2010, published 2013).

Details: in the acidic environment

CCCCCCOC(=O)NC(=N)c1ccc(NCc2nc3cc(C(=O)N(CCC(=O)OCC)c4ccccn4)ccc3n2C)cc1 [dabigatran etexilate, 3-[(2-{[4-(hexyloxycarbonylamino-imino-methyl)-phenylamino]-methyl}-1-methyl-1H-benzimidazole-5-carbonyl)-pyridine-2-yl-amino]-propionic acid ethyl ester]
pH-dependent solubility: greatly increased
